In one data set the target is jack bean urease (Canavalia ensiformis, UniProt P07374). Kind of data set: biochemical. As to the method:
The inhibitory activity of 1-(3-nitropyridin-2-yl)piperazine derivatives (5a-o; 7a-k) was assessed in vitro against urease with minor modifications using the indophenol method ([Al Azzam et al., 2022]; [Da Costa et al., 2022]). At first, 1 mM solution of a test compound was prepared in 10% DMSO followed by the preparation of the reaction mixture. The reaction mixture was prepared by adding 30 μL of reaction buffer (100 mmol/L of urea, 1 mmol/L of EDTA, 10 mmol/L of LiCl2, 10 mmol/L of KH2PO4; pH: 8.2), 50 μL of R1 (120 mmol/L phosphate buffer, 60 mmol/L sodium salicylate, 5 mmol/L sodium nitroprusside, 1 mmol/L EDTA and 5 KU/L urease), 10 μL of substrate (1 mM urea), and 10 μL of test compound in triplicate in a 96-well plate. After 5 min of incubation at ambient temperature, 70 μL of R2 (120 mmol/L phosphate buffer, 400 mmol/L sodium hydroxide, and 10 mmol/L sodium hypochlorite) was added to the reaction mixture ([Rauf et al., 2013]). After another incubation period of 10 min at room temperature, the absorbance was measured using a microplate reader (Bio-Tek, United States) at a particular wavelength of 630 nm. […] The following equation was used to determine the percentage of inhibition for each test compound. Percentage inhibition=100–Absorbance of test compound/ Absorbance of negative control×100
The IC50 values of test compounds (5a-o; 7a-k) at various concentrations were determined by analyzing the data, obtained from in vitro urease inhibitory assay, by GraphPad Prism version 8.0.2 (GraphPad, California, United States).

The next data set has as its system human blood cells. Kind of data set: In vitro hemocompatibility screening (hemolysis). In kind it is cell-based. To be noted: hemolysis percentage at 0.5 mg/mL and 1 mg/mL nearer to that of PBS. As to the method: 1-(3-nitropyridin-2-yl)piperazine 3 and its derivatives (5b, 5c, 5i; 7e, 7h) were analyzed for hemolysis activity due to their remarkable urease inhibition potential. […] Experimental data on hemolysis percentage have been depicted in Figure 5.
Hemolysis is the rupturing of the cell membrane of red blood cells that causes the expulsion of hemoglobin into the blood plasma. To analyze the effects of 1-(3-nitropyridin-2-yl)piperazine 3 and its derivatives (5b, 5c, 5i; 7e, 7h) on human blood, a hemolysis analysis was carried out (Supplementary Figure S69). About 5 mL fresh sample of human blood was collected from a volunteer and transferred to a vacutainer tube containing EDTA to prevent coagulation. The ultracentrifugation of the blood sample was carried out at 3,000 rpm for 20 min and the separated plasma was discarded. The blood cells were washed about three times by using a double volume of phosphate buffer solution (PBS) (pH = 7.4). […] To quantify hemoglobin in test samples, the absorbance of the supernatant was measured at 540 nm ([Munawwar et al., 2023]). From the absorbance value, the hemolysis percentage was determined by the following formula: Hemolysis %=Absorbance of test sample−Absorbance of negative control/[…]

Structures are written as SMILES. “Also recorded” adds a separate entry of the source.

Chain of jack bean urease (P07374 whole entry, looked up): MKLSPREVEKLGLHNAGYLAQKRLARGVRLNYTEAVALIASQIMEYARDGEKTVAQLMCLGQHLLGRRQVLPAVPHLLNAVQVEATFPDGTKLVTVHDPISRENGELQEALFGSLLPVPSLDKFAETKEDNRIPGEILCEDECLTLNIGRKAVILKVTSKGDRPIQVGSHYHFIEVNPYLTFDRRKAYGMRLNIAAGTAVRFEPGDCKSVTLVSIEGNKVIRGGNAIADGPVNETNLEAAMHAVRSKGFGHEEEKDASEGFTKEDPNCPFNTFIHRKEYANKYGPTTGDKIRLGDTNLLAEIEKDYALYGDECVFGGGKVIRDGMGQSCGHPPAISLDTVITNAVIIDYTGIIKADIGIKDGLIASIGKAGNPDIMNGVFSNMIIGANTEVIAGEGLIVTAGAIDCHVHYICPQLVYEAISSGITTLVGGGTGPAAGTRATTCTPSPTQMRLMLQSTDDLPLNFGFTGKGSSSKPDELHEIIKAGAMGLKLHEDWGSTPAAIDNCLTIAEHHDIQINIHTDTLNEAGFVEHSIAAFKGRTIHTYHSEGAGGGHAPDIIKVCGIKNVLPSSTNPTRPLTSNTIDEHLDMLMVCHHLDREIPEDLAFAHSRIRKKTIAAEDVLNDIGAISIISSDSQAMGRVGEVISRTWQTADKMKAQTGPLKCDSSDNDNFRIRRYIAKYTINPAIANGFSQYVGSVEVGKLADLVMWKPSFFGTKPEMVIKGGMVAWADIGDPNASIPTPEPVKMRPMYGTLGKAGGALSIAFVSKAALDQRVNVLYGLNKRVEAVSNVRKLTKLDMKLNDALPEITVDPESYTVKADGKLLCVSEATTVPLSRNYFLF

Regarding `O=C(CN1CCN(c2ncccc2[N+](=O)[O-])CC1)Nc1ccccc1` [5a, 2-(4-(3-Nitropyridin-2-yl)piperazin-1-yl)-N-phenylacetamide], the melting point (usually the temperature, or range, at which the solid turns liquid) is 79 to 80 °C. Besides, the IC50 – broadly, the concentration that gives 50% inhibition – against jack bean urease stood at 3.58 ± 0.84 µM.
On to `O=C(CN1CCN(c2ncccc2[N+](=O)[O-])CC1)Nc1ccccc1Cl` [5b, N-(2-Chlorophenyl)-2-(4-(3-nitropyridin-2-yl)piperazin-1-yl)acetamide], for which the IC50 at jack bean urease was 2 ± 0.73 µM.
Turning to `O=C(CN1CCN(c2ncccc2[N+](=O)[O-])CC1)Nc1cccc(Cl)c1` [5c, N-(3-Chlorophenyl)-2-(4-(3-nitropyridin-2-yl)piperazin-1-yl)acetamide], the melting point was in the range of 71 to 73 °C. The compound also registered an IC50 against jack bean urease of 2.13 ± 0.82 µM.
The compound `O=C(CN1CCN(c2ncccc2[N+](=O)[O-])CC1)Nc1ccc(Cl)cc1` [5d, N-(4-Chlorophenyl)-2-(4-(3-nitropyridin-2-yl)piperazin-1-yl)acetamide] gave a melting point of 99 to 100 °C. In addition, on jack bean urease, half-maximal inhibition (IC50) was put at 8.25 ± 0.41 µM.
For `O=C(CN1CCN(c2ncccc2[N+](=O)[O-])CC1)Nc1ccccc1Br` [5e, N-(2-Bromophenyl)-2-(4-(3-nitropyridin-2-yl)piperazin-1-yl)acetamide] the same measures were 109 to 110 °C and 4.47 ± 0.44 µM.
For the compound `O=C(CN1CCN(c2ncccc2[N+](=O)[O-])CC1)Nc1cccc(Br)c1` [5f, N-(3-Bromophenyl)-2-(4-(3-nitropyridin-2-yl)piperazin-1-yl)acetamide], the melting point is 101 to 102 °C. It took 5.24 ± 0.45 µM to reach half-maximal inhibition against jack bean urease (IC50).
`O=C(CN1CCN(c2ncccc2[N+](=O)[O-])CC1)Nc1ccc(Br)cc1` [5g, N-(4-Bromophenyl)-2-(4-(3-nitropyridin-2-yl)piperazin-1-yl)acetamide] showed a melting point of 115 to 116 °C. The same compound gave an IC50 against jack bean urease of 8.43 ± 0.41 µM.
For `O=C(CN1CCN(c2ncccc2[N+](=O)[O-])CC1)Nc1ccccc1[N+](=O)[O-]` [5h, N-(2-Nitrophenyl)-2-(4-(3-nitropyridin-2-yl)piperazin-1-yl)acetamide] the same measures were 113 to 115 °C and 7.12 ± 0.39 µM.
`O=C(CN1CCN(c2ncccc2[N+](=O)[O-])CC1)Nc1cccc([N+](=O)[O-])c1` [5i, N-(3-Nitrophenyl)-2-(4-(3-nitropyridin-2-yl)piperazin-1-yl)acetamide] returned a melting point of 139 to 141 °C. Also, the IC50 on jack bean urease was 2.56 ± 0.55 µM.
The corresponding values for `O=C(CN1CCN(c2ncccc2[N+](=O)[O-])CC1)Nc1ccc([N+](=O)[O-])cc1` [5j, N-(4-Nitrophenyl)-2-(4-(3-nitropyridin-2-yl)piperazin-1-yl)acetamide] are 145 to 146 °C and 4.19 ± 0.41 µM.
Take `Cc1ccccc1NC(=O)CN1CCN(c2ncccc2[N+](=O)[O-])CC1` [5k, 2-(4-(3-Nitropyridin-2-yl)piperazin-1-yl)-N-(ortho-tolyl)acetamide]: the melting point was in the range of 105 to 106 °C. The compound further returned an IC50 at jack bean urease of 14.1 ± 0.67 µM.
`Cc1cccc(NC(=O)CN2CCN(c3ncccc3[N+](=O)[O-])CC2)c1` [5l, 2-(4-(3-Nitropyridin-2-yl)piperazin-1-yl)-N-(meta-tolyl)acetamide] returned a melting point of 95 to 96 °C. The IC50 against jack bean urease stood at 7.14 ± 0.46 µM.
For `Cc1ccc(NC(=O)CN2CCN(c3ncccc3[N+](=O)[O-])CC2)cc1` [5m, 2-(4-(3-Nitropyridin-2-yl)piperazin-1-yl)-N-(para-tolyl)acetamide] the same measures were 112 to 113 °C and 9.37 ± 0.4 µM.
For `COc1ccccc1NC(=O)CN1CCN(c2ncccc2[N+](=O)[O-])CC1` [5n, N-(2-Methoxyphenyl)-2-(4-(3-nitropyridin-2-yl)piperazin-1-yl)acetamide], the melting point lay in the range of 120 to 121 °C. At jack bean urease, this compound registered a concentration for half-maximal inhibition (IC50) of 5.33 ± 0.44 µM.
Compound `COc1ccc(NC(=O)CN2CCN(c3ncccc3[N+](=O)[O-])CC2)cc1` [5o, N-(4-Methoxyphenyl)-2-(4-(3-nitropyridin-2-yl)piperazin-1-yl)acetamide] came in with a melting point of 107 to 108 °C. Further, on jack bean urease, 5.21 ± 0.47 µM corresponded to half-maximal inhibition (IC50).
The corresponding values for `CC(C(=O)Nc1ccccc1)N1CCN(c2ncccc2[N+](=O)[O-])CC1` (centres unmarked) [7a, 2-(4-(3-Nitropyridin-2-yl)piperazin-1-yl)-N-phenylpropanamide] are 92 to 94 °C and 7.41 ± 0.44 µM.
The corresponding values for `CC(C(=O)Nc1cccc(Cl)c1)N1CCN(c2ncccc2[N+](=O)[O-])CC1` (centres unmarked) [7b, N-(3-Chlorophenyl)-2-(4-(3-nitropyridin-2-yl)piperazin-1-yl)propanamide] are 107 to 109 °C and 6.7 ± 0.37 µM.
Compound `CC(C(=O)Nc1ccc(Cl)cc1)N1CCN(c2ncccc2[N+](=O)[O-])CC1` (centres unmarked) [7c, N-(4-Chlorophenyl)-2-(4-(3-nitropyridin-2-yl)piperazin-1-yl)propanamide] showed a melting point of 57 to 59 °C. On jack bean urease, this compound displayed an IC50 of 7.38 ± 0.37 µM.
As for `CC(C(=O)Nc1ccccc1Br)N1CCN(c2ncccc2[N+](=O)[O-])CC1` (centres unmarked) [7d, N-(2-Bromophenyl)-2-(4-(3-nitropyridin-2-yl)piperazin-1-yl)propanamide], the melting point fell in the range of 91 to 94 °C. At jack bean urease, this compound showed an IC50 of 6.74 ± 0.49 µM.
Take `CC(C(=O)Nc1ccccc1[N+](=O)[O-])N1CCN(c2ncccc2[N+](=O)[O-])CC1` (centres unmarked) [7e, N-(2-Nitrophenyl)-2-(4-(3-nitropyridin-2-yl)piperazin-1-yl)propanamide]: the half-maximal inhibitory concentration (IC50) at jack bean urease turned out to be 2.24 ± 1.63 µM. The “biocompatibility in human blood cells (hemolysis percentage)” value in the data set with human blood cells is reported as “more biocompatible; also recorded: good biocompatibility”.
With `CC(C(=O)Nc1cccc([N+](=O)[O-])c1)N1CCN(c2ncccc2[N+](=O)[O-])CC1` (centres unmarked) [7f, N-(3-Nitrophenyl)-2-(4-(3-nitropyridin-2-yl)piperazin-1-yl)propanamide], the melting point was 120 to 121 °C. In addition, half-maximal inhibition at jack bean urease (IC50) was put at 7.66 ± 0.37 µM.
Regarding `CC(C(=O)Nc1ccc([N+](=O)[O-])cc1)N1CCN(c2ncccc2[N+](=O)[O-])CC1` (centres unmarked) [7g, N-(4-Nitrophenyl)-2-(4-(3-nitropyridin-2-yl)piperazin-1-yl)propanamide], the melting point fell in the range of 159 to 161 °C. This compound returned an IC50 against jack bean urease of 6.13 ± 0.4 µM.
In turn, `Cc1ccccc1NC(=O)C(C)N1CCN(c2ncccc2[N+](=O)[O-])CC1` (centres unmarked) [7h, N-(ortho-Tolyl)-2-(4-(3-nitropyridin-2-yl)piperazin-1-yl)propanamide] registered a melting point of 90 to 92 °C. At jack bean urease, it took 3.01 ± 0.45 µM to reach half-maximal inhibition (IC50). For the same compound, the “biocompatibility in human blood cells (hemolysis percentage)” value in the data set on human blood cells is given as “more biocompatible; also recorded: good biocompatibility”.
With `Cc1ccc(NC(=O)C(C)N2CCN(c3ncccc3[N+](=O)[O-])CC2)cc1` (centres unmarked) [7i, N-(para-Tolyl)-2-(4-(3-nitropyridin-2-yl)piperazin-1-yl)propanamide], the melting point was in the range of 88 to 89 °C. This compound registered an IC50 against jack bean urease of 5.65 ± 0.4 µM.
The corresponding values for `COc1ccccc1NC(=O)C(C)N1CCN(c2ncccc2[N+](=O)[O-])CC1` (centres unmarked) [7j, N-(2-Methoxyphenyl)-2-(4-(3-nitropyridin-2-yl)piperazin-1-yl)propanamide] are 108 to 110 °C and 5.32 ± 0.41 µM.
The corresponding values for `COc1ccc(NC(=O)C(C)N2CCN(c3ncccc3[N+](=O)[O-])CC2)cc1` (centres unmarked) [7k, N-(4-Methoxyphenyl)-2-(4-(3-nitropyridin-2-yl)piperazin-1-yl)propanamide] are 62 to 64 °C and 5.95 ± 0.43 µM.
As for `O=[N+]([O-])c1cccnc1N1CCNCC1` [compound 3, 1-(3-Nitropyridin-2-yl)piperazine], the midpoint of inhibition at jack bean urease, the IC50, lay at 3.9 ± 1.91 µM.

These data come from publication PMC10965793, “Synthesis and biological evaluation of pyridylpiperazine hybrid derivatives as urease inhibitors” (Frontiers in Chemistry, 2024).
